Test results: patent publication US8765940B2 (priority 2009, dated 2014)
Like-named read-outs stand apart in the source and are kept apart here.

Legend:
PI3Kδ = PI3Kδ (Homo sapiens (Human), UniProt O00329); format: biochemical; conditions: PI3Kδ Alphascreen assay
[1] = system: mouse model of rheumatoid arthritis; conditions: in vivo; cited from earlier work
[2] = system: model of systemic lupus erythematosis; conditions: in vivo; cited from earlier work
protein kinases = conditions: cited from earlier work
p110δ = p110δ (Homo sapiens (Human), UniProt O00329); conditions: cited from earlier work
[3] = system: ovalbumin-induced airway inflammation; conditions: cited from earlier work
neutrophil migration = conditions: cited from earlier work
Class I PI 3-kinases = conditions: cited from earlier work
superoxide release = conditions: cited from earlier work

Chain of PI3Kδ (O00329 whole entry): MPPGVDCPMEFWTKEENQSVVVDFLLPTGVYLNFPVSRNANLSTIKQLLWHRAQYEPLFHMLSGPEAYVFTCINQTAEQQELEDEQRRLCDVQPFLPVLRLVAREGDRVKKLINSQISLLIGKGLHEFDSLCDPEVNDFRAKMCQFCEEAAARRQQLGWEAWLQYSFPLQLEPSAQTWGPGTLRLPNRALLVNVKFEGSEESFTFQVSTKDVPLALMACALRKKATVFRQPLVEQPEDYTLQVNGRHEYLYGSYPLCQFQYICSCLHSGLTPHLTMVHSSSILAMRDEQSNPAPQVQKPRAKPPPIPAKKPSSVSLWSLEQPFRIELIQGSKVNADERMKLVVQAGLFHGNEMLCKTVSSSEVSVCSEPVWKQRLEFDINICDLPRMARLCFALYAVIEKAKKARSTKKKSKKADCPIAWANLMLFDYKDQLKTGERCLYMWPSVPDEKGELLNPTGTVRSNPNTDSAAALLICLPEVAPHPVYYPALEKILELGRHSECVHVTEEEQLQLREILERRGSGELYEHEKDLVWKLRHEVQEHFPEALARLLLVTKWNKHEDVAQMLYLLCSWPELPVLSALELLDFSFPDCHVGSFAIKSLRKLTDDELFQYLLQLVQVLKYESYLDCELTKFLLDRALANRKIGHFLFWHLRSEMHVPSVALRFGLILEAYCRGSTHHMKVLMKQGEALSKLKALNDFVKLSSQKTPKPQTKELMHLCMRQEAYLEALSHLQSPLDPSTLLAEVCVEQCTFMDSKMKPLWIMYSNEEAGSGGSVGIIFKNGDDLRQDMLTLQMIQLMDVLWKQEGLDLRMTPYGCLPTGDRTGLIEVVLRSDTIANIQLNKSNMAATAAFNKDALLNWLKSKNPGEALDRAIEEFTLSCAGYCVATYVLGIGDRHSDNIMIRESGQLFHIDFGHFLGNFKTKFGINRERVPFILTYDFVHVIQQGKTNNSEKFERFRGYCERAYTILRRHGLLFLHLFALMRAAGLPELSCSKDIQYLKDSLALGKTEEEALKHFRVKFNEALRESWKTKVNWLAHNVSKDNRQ
Chain of PI3Kδ (P27986 whole entry partner): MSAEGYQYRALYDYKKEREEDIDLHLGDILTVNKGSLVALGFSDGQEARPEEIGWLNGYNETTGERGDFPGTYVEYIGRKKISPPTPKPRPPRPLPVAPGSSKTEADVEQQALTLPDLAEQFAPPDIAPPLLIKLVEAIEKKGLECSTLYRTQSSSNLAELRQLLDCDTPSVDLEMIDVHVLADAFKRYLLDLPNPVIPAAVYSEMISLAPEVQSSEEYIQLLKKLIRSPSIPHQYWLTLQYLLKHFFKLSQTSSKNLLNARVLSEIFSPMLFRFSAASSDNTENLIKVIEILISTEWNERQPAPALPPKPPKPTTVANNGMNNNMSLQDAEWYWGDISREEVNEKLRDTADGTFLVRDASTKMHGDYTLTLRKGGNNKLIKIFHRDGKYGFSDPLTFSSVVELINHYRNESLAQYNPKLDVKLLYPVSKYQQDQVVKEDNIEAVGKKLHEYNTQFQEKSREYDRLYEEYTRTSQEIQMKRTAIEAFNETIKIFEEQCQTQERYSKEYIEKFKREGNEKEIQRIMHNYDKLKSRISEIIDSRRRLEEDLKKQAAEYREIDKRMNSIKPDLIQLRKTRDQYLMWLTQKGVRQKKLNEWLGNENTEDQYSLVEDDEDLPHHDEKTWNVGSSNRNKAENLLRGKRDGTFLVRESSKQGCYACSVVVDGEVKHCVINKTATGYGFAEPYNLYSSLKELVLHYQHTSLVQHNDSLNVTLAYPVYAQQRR
Chain of p110δ (O00329 whole entry, species assumed): as the sequence (O00329 whole entry) above
Chain of p110δ (P27986 whole entry partner, species assumed): as the sequence (P27986 whole entry partner) above

Row | Compound | Ki (PI3Kδ) | also measured
1 | Cc1c(-c2cccc(O)n2)nc2cc(F)ccc2c1N1CC2(CCOCC2)c2ccc(N3CCOCC3)cc21 [6-(7-fluoro-3-methyl-4-(6-(4-morpholinyl)-2′,3′,5′,6′-tetrahydrospiro[indole-3,4′-pyran]-1(2H)-yl)-2-quinolinyl)-2-pyridinol] | 155 nM | 
2 | Cc1nc2ccc(Cl)cc2c(N2CC(C)(C)c3ccc(-c4cn[nH]c4)cc32)c1C [6-chloro-4-(3,3-dimethyl-6-(1H-pyrazol-4-yl)-2,3-dihydro-1H-indol-1-yl)-2,3-dimethylquinoline] | 9530 nM | 
3 | CC1(C)CN(c2c3c(nc4ccc(Cl)cc24)CCCC3)c2cc(N3CCOCC3)ccc21 [7-chloro-9-(3,3-dimethyl-6-(4-morpholinyl)-2,3-dihydro-1H-indol-1-yl)-1,2,3,4-tetrahydroacridine] | 2620 nM | 
4 | CC1(C)CN(c2c3c(nc4ccc(Cl)cc24)CCC3)c2cc(N3CCOCC3)ccc21 [7-chloro-9-(3,3-dimethyl-6-(4-morpholinyl)-2,3-dihydro-1H-indol-1-yl)-2,3-dihydro-1H-cyclopenta[b]quinoline] | 772 nM | 
5 | Cc1c(-c2ccccn2)nc2cc(F)ccc2c1N1CC(CO)(CO)c2ccc(N3CCOCC3)cc21 [(1-(7-fluoro-3-methyl-2-(2-pyridinyl)-4-quinolinyl)-6-(4-morpholinyl)-2,3-dihydro-1H-indole-3,3-diyl)dimethanol] | 154 nM | 
6 | O=C1NC(=O)/C(=C\c2ccc3nccnc3c2)S1 [AS 605240] |  | efficacy in a mouse model of rheumatoid arthritis [1]: efficacious; onset of disease in a model of systemic lupus erythematosis [2]: delay onset of disease
7 | Cc1ccccc1-n1c(Cn2cnc3c(N)ncnc32)nc2cccc(C)c2c1=O [IC87114] |  | activity against any protein kinases tested (protein kinases): no activity; inhibits p110δ (p110δ): high nanomolar range (triple digit); inflammation and disease in a murine model of asthma [3]: significantly ameliorate inflammation and disease
8 | O=c1cc(N2CCOCC2)oc2c(-c3ccccc3)cccc12 [LY294002] |  | neutrophil migration (neutrophil migration): block; IC50 (Class I PI 3-kinases; LY294002, read-out: IC50 values against each of these PI 3-kinases): ~1000 nM; superoxide release (superoxide release): block
9 | COC(=O)N1CCN(c2nc3cc(F)cc(F)c3c(N3CC4(CCOCC4)c4ncc(N5CCOCC5)cc43)c2C)CC1 [methyl 4-(5,7-difluoro-3-methyl-4-(6′-(4-morpholinyl)-2,3,5,6-tetrahydrospiro[pyran-4,3′-pyrrolo[3,2-b]pyridin]-1′(2′H)-yl)-2-quinolinyl)-1-piperazinecarboxylate] | 1.49 nM | 
10 | Cc1c(N2CCN(C(=O)OC(C)(C)C)CC2)nc2cc(F)cc(F)c2c1N1CC2(CCOCC2)c2ncc(N3CCOCC3)cc21 [tert-butyl 4-(5,7-difluoro-3-methyl-4-(6′-(4-morpholinyl)-2,3,5,6-tetrahydrospiro[pyran-4,3′-pyrrolo[3,2-b]pyridin]-1′(2′H)-yl)-2-quinolinyl)-1-piperazinecarboxylate] | 12.4 nM | 
11 | COC[C@H]1OC(=O)c2coc3c2[C@@]1(C)C1=C(C3=O)[C@@H]2CCC(=O)[C@@]2(C)C[C@H]1OC(C)=O [wortmannin] |  | neutrophil migration (neutrophil migration): block; IC50 (Class I PI 3-kinases; wortmannin, read-out: IC50 values against each of the various Class I PI 3-kinases): 1 to 10 nM; superoxide release (superoxide release): block

Further lines, with some results ahead:

Row | Ki (PI3Kδ) | Compound | also measured
12 | 571 nM | COc1cc2nc(C)c(C)c(N3CC4(CCOCC4)c4ccc(Br)cc43)c2cc1Cl [6-bromo-1-(6-chloro-7-methoxy-2,3-dimethyl-4-quinolinyl)-1,2,2′,3′,5′,6′-hexahydrospiro[indole-3,4′-pyran]] | 
13 | 618 nM | Cc1nc2c(C)cc(Cl)cc2c(N2CC(C)(C)c3ccc(N4CCOCC4)cc32)c1C [6-chloro-4-(3,3-dimethyl-6-(4-morpholinyl)-2,3-dihydro-1H-indol-1-yl)-2,3,8-trimethylquinoline] | 
14 | 5560 nM | COc1ccccc1-c1cc(N2CC(C)(C)c3ccc(N4CCOCC4)cc32)c2cc(Cl)ccc2n1 [6-chloro-4-(3,3-dimethyl-6-(4-morpholinyl)-2,3-dihydro-1H-indol-1-yl)-2-(2-methoxyphenyl)quinoline] | 
15 | 1130 nM | CCc1c(C)nc2ccc(Cl)cc2c1N1CC(C)(C)c2ccc(N3CCOCC3)cc21 [6-chloro-4-(3,3-dimethyl-6-(4-morpholinyl)-2,3-dihydro-1H-indol-1-yl)-3-ethyl-2-methylquinoline] | 
16 | 985 nM | Cc1c(C(F)(F)F)nc2ccc(Cl)cc2c1N1CC(C)(C)c2ccc(N3CCOCC3)cc21 [6-chloro-4-(3,3-dimethyl-6-(4-morpholinyl)-2,3-dihydro-1H-indol-1-yl)-3-methyl-2-(trifluoromethyl)quinoline] | 
17 | 196 nM | COc1cc2nc(C)c(C)c(N3CC(C)(C)c4ccc(N5CCOCC5)cc43)c2cc1Cl [6-chloro-4-(3,3-dimethyl-6-(4-morpholinyl)-2,3-dihydro-1H-indol-1-yl)-7-methoxy-2,3-dimethylquinoline] | 
18 | 3710 nM | COc1cc(N2CCOCC2)cc2c1ccn2-c1c(C)c(C)nc2ccc(Cl)cc12 [6-chloro-4-(4-methoxy-6-(4-morpholinyl)-1H-indol-1-yl)-2,3-dimethylquinoline] | 
19 | 3960 nM | COc1cc2nc(C)c(C)c(N3CC(C)(C)c4ccc(N5CCOCC5)c(C)c43)c2cc1Cl [6-chloro-7-methoxy-2,3-dimethyl-4-(3,3,7-trimethyl-6-(4-morpholinyl)-2,3-dihydro-1H-indol-1-yl)quinoline] | 
20 | 111 nM | CC1(C)CN(c2c3c(nc4ccc(Cl)cc24)C(C)(C)CC3)c2cc(N3CCOCC3)ccc21 [7-chloro-9-(3,3-dimethyl-6-(4-morpholinyl)-2,3-dihydro-1H-indol-1-yl)-3,3-dimethyl-2,3-dihydro-1H-cyclopenta[b]quinoline] | 
21 | 3180 nM | Cc1cc(Cl)c2nc(C)c(C)c(N3CC(C)(C)c4ccc(N5CCOCC5)cc43)c2c1 [8-chloro-4-(3,3-dimethyl-6-(4-morpholinyl)-2,3-dihydro-1H-indol-1-yl)-2,3,6-trimethylquinoline] | 
22 | 50 nM | Cc1nc2c(Cl)cccc2c(N2CC(C)(C)c3ccc(N4CCOCC4)cc32)c1C [8-chloro-4-(3,3-dimethyl-6-(4-morpholinyl)-2,3-dihydro-1H-indol-1-yl)-2,3-dimethylquinoline] | 
